Laboratory results taken from patent publication US11674959B2, “Methods for identifying and preparing pharmaceutical agents for activating Tie1 and/or Tie2 receptors” (The Johns Hopkins University, priority 2017, dated 2023).

Test system: MEC monolayers
Test: FITC Transwell permeability assay
Type: cell-based, human
Experimental: The integrity of these junctions is also important for the regulation of monolayer permeability by controlling the size of intercellular openings. The effect of the AXT107 on EC permeability was further investigated by the transendothelial diffusion of FITC-labeled dextran across MEC monolayers seeded onto permeable Transwell® substrates.
Human dermal microvascular endothelial cells (Lonza) were maintained at 37° C. and 5% CO2 in EBM-2MV medium (Lonza) and used between passages two through seven. Where applicable, cells were serum starved in EBM-2 medium (Lonza) with no supplements. For FITC-Dextran permeability assays phenol red-free media were used to avoid auto-fluorescence. AXT107 were manufactured at New England Peptide by […], lyophilized, and dissolved in 100% DMSO.
Transwell, twenty-four-well inserts (Corning) were coated with 7.5 μg/cm^2 FN1 for two hours at 37° C., aspirated, and then dried for thirty minutes at room temperature. Wells were then seeded with 7.5×10^4 MECs in 100 μl of EBM-2 media (without phenol red) and allowed to settle for thirty minutes at room temperature. 1 ml of EGM-2 media was then added to the bottom chamber and an additional 200 μl to the top chamber. The plate was incubated for twenty-four hours at 37° C. after which the media was aspirated and an additional 7.5×10^4 MECs were plated in each well as described above. After forty-eight hours at 37° C., the media was aspirated from both chambers and the cells were washed twice in dPBS containing Ca^2+ and Mg^2+, once with EBM-2 media (without phenol red) and serum starved in EBM-2 media applied to both chambers for two hours at 37° C. After this incubation, 100 μM AXT107 or an equivalent amount of DMSO vehicle was added and incubated for an additional ninety minutes. In the top chamber, the cells were then treated with 200 ng/ml Ang2, 100 ng/ml VEGFA, both, or PBS control and in the bottom chamber, the cells were then treated with 25 μg/ml FITC-Dextran (40 kDa MW). AXT107 was also added in both chambers to maintain a concentration of 100 μM. After three hours, 10 μl was removed from the top chamber of each well and mixed with 90 μl of water in a clear bottom, 96-well plate. Fluorescence values for each sample were calculated using a Perkin Elmer plate reader.

## LRRFSTAPFAFIDINDVINF [AXT107]
100 μM AXT107 pre-incubation + Ang2, vs growth factor alone
  FITC-dextran diffusion into the top chamber: significant decrease in FITC-dextran diffusion into the top chamber
100 μM AXT107 pre-incubation + Ang2 in combination with VEGF, vs growth factors alone
  FITC-dextran diffusion into the top chamber: significant decrease in FITC-dextran diffusion into the top chamber
VEGF in the presence vs absence of peptide
  FITC-dextran diffusion into the top chamber: similar, but non-significant trend
Single agent alone, FITC-Dextran 40 kDa, three hours
  FITC-dextran diffusion across the monolayer, agent alone: influenced FITC-dextran diffusion across the monolayer
